According to patent US4678809A, “Injectable fomulations of disulfiram for the treatment of alcoholism” (priority 1985, dated 1987):
“Also recorded” adds a separate entry of the source. Where two headings read alike, the source gives them in different places.

How the values were obtained:
[1] = in vivo; cited from earlier work
[2] = Gamma irradiation: sterility and chemical stability; format: physicochemical; conditions: after gamma irradiation
Text: In order to be suitable for injection, the formulations must be sterile. […] Gamma irradiation was therefore used as the best available technique.
A Best Industries Gammaradiator 100 Cs-137 irradiator was used. The disulfiram unit doses were placed in the 20×20 cm irradiation chamber, 30 cm from a 1800 curie Cesium-137 source emitting 660 KeV gamma rays. The exposure rate at the point of irradiation was 90 R/min. A filter was placed in the beam to ensure a uniform exposure at the floor of the irradiation chamber. A total exposure of 50,000 R was administered. Prior to injection, approximately 10 cc of sterile normal saline was drawn up into the syringe which was then shaken vigorously to suspend the DSF powder. The resultant slurry could then be readily injected through a wide bore (e.g. 14 gauge) needle.

[3] = system: alcoholic human subjects; test: Clinical study: tolerability, injection site and systemic effects; format: in vivo; conditions: 250 mg every morning, two subjects
Method: (§1) Two alcoholic human subjects were studied: Subject No.1 and subject No. 2 a person.
(§2) Each subject discontinued oral disulfiram one week before commencing the study. On day zero, each fasted from the preceding midnight, then received a standard alcohol challenge (0.15 G/kg). After eating a meal, and confirming by breath testing (with an Alco-Sensor III) that the blood ethanol concentration had fallen to zero, subject No. 1 received a dose of 1 G disulfiram subcutaneously. The drug was administered in the upper outer quadrant of the right buttock with aseptic precautions using a 14 G needle, after preparing the skin with infiltration of local anesthetic. A control injection of sterile normal saline was administered to the left buttock. Subject No. 2 received 2 G disulfiram in a similar fashion.
(§3) A similar alcohol challenge was then repeated on days 7, 14, 21, and 28 after the injection. A physical examination was performed at each visit and the injection site examined.

[4] = system: alcoholic human subjects; test: Clinical study: subjective and clinical response to alcohol challenge; format: in vivo
Method: as §1, §2, §3
Subjective responses--the subject was asked to state aloud the number in the following table which most closely accorded with the way he or she felt at the moment. This response was executed every five minutes, following the alcohol challenge, for a two hour period.

[5] = system: acetaldehyde in breath; test: Clinical study: peak acetaldehyde concentration in the breath after alcohol challenge; format: in vivo, human
Method: (§4) The method utilizes a Pyrex glass gas-collecting tube (internal volume approximately 300 cc) sealed at both ends with Teflon® taps. A side-port sealed with a Neoprene rubber septum permits sampling of the contents. The tube is first heated to approximately 70° C. to prevent any condensation from the breath. The subject then blows forcefully into the tube, and the Teflon taps are closed at the end of expiration while the tube is still in the subject's mouth. The tube is then taken to the laboratory, where, after reheating to 70° C., a 2.0 ml sample of the breath is aspirated through the Neoprene septum with a heated syringe and immediately injected into a Gas Chromatograph, for assay of ethanol and acetaldehyde by a standard flame-ionization detection technique. (The method has been described by Phillips et al. in Alcoholism: Clinical & Experimental Research 1984; 8:293-296.)
(§5) Each subject discontinued oral disulfiram one week before commencing the study. On day zero, each fasted from the preceding midnight, then received a standard alcohol challenge (0.15 G/kg). After eating a meal, and confirming by breath testing (with an Alco-Sensor III) that the blood ethanol concentration had fallen to zero, subject No. 1 received a dose of 1 G disulfiram subcutaneously. […]

[6] = system: ethanol in breath; test: Clinical study: peak ethanol concentration in the breath after alcohol challenge; format: in vivo, human; conditions: compared to peak prior to treatment
Method: as §4, §5

[7] = cited from earlier work
[8] = system: aldehyde dehydrogenase; conditions: thiol groups, cited from earlier work
[9] = system: dopamine beta hydroxylase; conditions: cited from earlier work
[10] = system: alcoholic humans; conditions: cited from earlier work
[11] = Local and systemic toxicity after subcutaneous implantation in rats
Text: Two groups of animals were studied: a test group receiving the subcutaneous C-14-disulfiram-PLGA implant, and a control group receiving subcutaneous uncompounded C-14-disulfiram. Each group comprised five Wistar CD-1 male rats weighing between 100-120 g. After anesthesia with Penthrane (Abbott Laboratories), a slit was cut in the skin of the interscapular region and a small subcutaneous pocket was dissected, large enough for the introduction of the 1/8 inch diameter rods. Each rat received 500 mg of the 20% composite rods (containing 100 mg C-14-disulfiram and 400 mg PLFA) and the wound was closed with clips. […] No attempt was made to preserve strict asepsis during these procedures.
All rats were individually housed in metabolic cages to facilitate the separate collection of urine and feces. Prior to implantation, their fecal and urine samples were collected to determine background counts. Subsequent samples of all excreted urine and feces were collected on days 1,2,7,9,11, 15,18,22,25,29,32,39,46,53,60,67,74,81 and 88 after implantation. Urine samples were assayed for C-14 labelled material in a Beckman LS-230 liquid scintillation counter, and the excretion was calculated as the mass of implanted disulfiram which contained an equivalent amount of radiolabel. Feces were combusted to 14-CO2 with a Harvey Biological oxidizer and absorbed in oxyfluor-CO2 (New England Nuclear) for counting. […]

[12] = pre-treatment with DSF, Lundwall et al.

In the case of S=C=S [carbon disulfide], the excretion of metabolites [1] is given as “a volatile compound excreted in the breath”.

For CCN(CC)C(=S)SSC(=S)N(CC)CC [disulfiram], the “chemical stability of irradiated samples” value [2] was “did not demonstrate any reduction in the concentration of disulfiram”, the “adverse effects of oral disulfiram before the study” value [3] was “no adverse effects” and the “onset of diaphoresis after ethanol challenge, Subject No. 1” value ([4]; 1 G disulfiram, day 7) was 20 min. For the same compound, the “diaphoresis, Subject No. 1” value ([4]; 1 G disulfiram, day 7, duration of the diaphoretic period) was 10 min, the “subjective effects following ethanol challenges, Subject No. 1” value ([4]; 1 G disulfiram, entire four weeks) was “no adverse subjective effects” and the “subjective discomfort following ethanol challenge, Subject No. 2” value ([4]; 2 G disulfiram, day 7) was “dizziness, facial flushing, blurred vision and headache, and their conjunctivae were observed to be injected”. For the same compound, the “subjective discomfort score, Subject No. 2, at 20 minutes” value ([4]; 2 G disulfiram, day 7, 20 minutes, scale 1 Very well to 5 Terrible, 3 = A little unwell) was 3, the “subjective discomfort score, Subject No. 2, at 40 minutes” value ([4]; 2 G disulfiram, day 7, 40 minutes, scale 1 Very well to 5 Terrible, 3 = A little unwell) was 3 and the “effects following ethanol challenge, Subject No. 2, day 28” value ([4]; 2 G disulfiram, day 28) was “no unpleasant symptoms”. The “positive results of alcohol challenges (symptoms)” value ([4]; after DSF injection, human subjects) was “elevated skin temperatures, dizziness, facial flushing, headache, and blurring of vision”, the “peak acetaldehyde concentration in breath, Subject No. 1” value ([5]; 1 G, compared to peak prior to treatment) was “elevated peak in Subject No. 1 on day 7” and the “acetaldehyde following consumption of alcohol” value ([5]; FIG. 3, after injection of DSF) was “elevated levels of acetaldehyde”. For the same compound, the “peak ethanol concentration in breath, Subject No. 1” value ([6]; 1 G) was “elevated peak in subject No. 1, on days 7 and 14”, the “peak ethanol concentration in breath, Subject No. 2” value ([6]; 2 G) was “only a mild elevation in subject No. 2 on day 7” and the “solubility of DSF in water” value [7] was 0.02 G/100 ml. The “solubility in water (in words)” value ([7]; listed as DSF) was “poorly soluble in water; also recorded: near insolubility in water”, the “inactivation of aldehyde dehydrogenase” value [8] was “inactivating aldehyde dehydrogenase” and the “inactivation of aldehyde dehydrogenase” value ([8]; listed as DSF) was “inactivates aldehyde dehydrogenase by irreversible disulfide interchange reactions with thiol groups”. For the same compound, the “inhibition of dopamine beta hydroxylase” value [9] was “inhibits dopamine beta hydroxylase”, the “end of typical response after consuming alcohol” value [10, 12] was at most 30 min and the “onset of typical response after consuming alcohol” value [10, 12] was “five to ten”. The “Disulfiram-Ethanol Reaction symptoms” value ([10]; pretreatment with DSF, then ethyl alcohol, listed as DSF) was “nausea, palpitations, flushing, hyperventilation and hypotension”, the excretion of metabolites [1] was “the breakdown products are promptly excreted” and the “metabolism in the blood and liver” value [1] was “very rapidly metabolized in the blood and liver”. For the same compound, the “local or systemic toxicity” value [11] was “No evidence of local or systemic toxicity was observed”.
